We go through five compounds from US20240376062A1, “COMPOUNDS FOR THE TREATMENT OF ALZHEIMER’S DISEASE” (BOARD OF TRUSTEES OF MICHIGAN STATE UNIVERSITY, priority 2021, published 2024).

“Also recorded” adds a separate entry of the source.

Data set [1] addresses T1, p-tau (Homo sapiens, UniProt P10636).
T1 construct: made in house
As to the kind of experiment: Photo-induced cross-linking (PICUP) assay of p-tau oligomerization. It is filed as biochemical. Conditions: for dose dependence of inhibition of p-tau oligomerization: dose response experiments, FIG. 3 lower panel (B); for inhibition of p-tau oligomer formation (cross-linking): p-tau 6 μM preincubated with compound 50 μM for 24 hours. The method, then:
p-Tau was diluted in 10 mM phosphate buffer (pH 7.4) at a final concentration of 10 μM and preincubated with different compounds for 24 h prior cross-linking. Different compounds were added to the p-tau solution at a final concentration of 12.5, 25, or 50 μM. The control consisted of samples without Ru(bpy), light exposition, and without compound. The reaction buffer consisted of 300 μM Ru(bpy), 6 mM ammonium persulfate. Prior light exposure, p-tau was diluted to a final concentration of 6 μM. Cross-linking was induced by irradiation, for 3 s, at a final volume of 20 μL, with a 53 W (120 V) incandescent lamp installed in a homemade dark-box. After irradiation, 8.3 μL of Lammeli loading buffer was immediately added to the solution, followed by incubation at 95° C. for 10 min. The cross-linked samples were separated on a 10% SDS-Page gel and visualized by Coomassie blue staining.
(§1) To examine how JF-19-73 affected p-tau fibrillization, two approaches were taken. Firstly, we used the Photo-Induced Cross-linking of Unmodified Proteins (PICUP) assay to investigate p-tau oligomerization under the influence of JF19-73 (FIG. 3). After being subjected to short light exposure, p-tau was cross-linked and resolved as a smear of higher molecular weight (lane 3, FIG. 3).^[6c] […] We further perform transmission electron microscopy to visualize the extent and morphology of p-tau fibrils.

The target in data set [2] is T1, p-tau. In words: Thioflavin-S (ThS) fluorescence assay of p-tau fibril formation. Particulars: compound 100 μM, about 15x molar excess to p-tau. The format is biochemical. The method, then: p-Tau from the stock solution of 1 mM was added to 20 mM Tris buffer (pH 7.4) with 1 mM DTT and transferred to a black microplate 384 well plate with flat bottom and medium binding (greiner bio-one, ref 784076). Each well contained a final volume of 10 μL with a peptide final concentration of 6 μM. Experiments in the presence of p-tau were initiated by adding a solution of ThS at a final concentration of 20 μM with different compounds. Final compound concentrations ranged from 25 to 100 μM. The background sample consisted of 0.1% DMSO in buffer without p-tau. The plate was sealed and read with the excitation and emission wavelengths set at 440 and 490 nm, respectively, with a Synergy HT multi-mode microplate reader (BioTek, Winooski, VT). Measurements were taken at 37° C. every 10 min for 16 hours. Samples were measured in three replicates and the experiments were repeated three times using different p-tau stock solutions. For each time point, arbitrary units of fluorescence were calculated from the mean values normalized against the maximum value in each completed assay. Arbitrarily, the maximum value (100%) for the fluorescence intensity was established for p-tau with 0.1% DMSO.
The structure of three newly synthesized small molecules representing the sulfonamide (JF-19-73), sulfonylurea (JF(Tr)-20-58), and urea (JF-19-43, JF(TT)-19-5) series are presented in FIG. 1. These molecules were assessed for their anti-aggregation and cytoprotection effects using biophysical methods and survival assays on human neuroblastoma SH-SY5Y cells, respectively. […] First, the formation of fibrils was monitored by measuring the fluorescence intensity of the dye thioflavin-S (ThS) with the excitation and emission wavelengths set at 440 and 490 nm. The fluorescent dye ThS specifically binds to the cross β-sheet structure of protein fibrils, providing a strong fluorescence emission.^[14] Since the fluorescence emission increases with fibrils formation, the kinetic process of fibrillization is routinely assessed using ThS fluorescence as the primary assays to screen for the candidate inhibitors. […]

Another data set concerns SH-SY5Y cells. As to the kind of experiment: Cell viability assay, protection from aggregated p-tau and compound toxicity. The format is cell-based, human. Particulars: for protection of SH-SY5Y cells against p-tau cytotoxicity: 0.8 μM p-tau, compound 8 μM (molar ratio 1:10). The method, then: Cells were maintained in a 37° C., 5% CO2 incubator, in exponential growth, for the duration of experimentation. For this assay, cells were seeded in 96-well microtiter plates at a density of 5×10^3 SH-SY5Y cells per well for 24 h. Compounds freshly solubilized in DMSO were diluted in culture medium and aliquots containing sequential dilution of drugs were added subsequently after stimulation with 2 μM of p-tau. p-Tau was dissolved and incubated in 10 mM PBS (pH 7.4, 25° C.) 24 h before addition to cells. Compounds were tested at 2, 4, and 8 μM and DMSO concentration was maintained at 0.1% to avoid growth inhibition. […] Plates were incubated for 24 h in the presence of compounds and p-Tau. Cell-based assays were performed as previously described ((Liu et al, 2020, Sci. Rep. Hyperphosphorylated tau aggregation and cytotoxicity modulators screen identified prescription drugs linked to Alzheimer's disease and cognitive functions. Liu M, Dexheimer T, Sui D, Hovde S, Deng X, Kwok R, Bochar D A, Kuo M H. Sci Rep. 2020 Oct. 6; 10(1):16551. doi: 10.1038/s41598-020-73680-2.). The cell viability was calculated from fluorescence measured with a Synergy HT multi-mode microplate reader (BioTek, Winooski, VT). The data from experiments conducted in triplicate were corrected for the background fluorescence of the medium and was expressed as the mean percentage of fluorescence obtained for control DMSO-treated cells. The growth inhibition percentage was calculated with reference to DMSO-treated cells for each compound concentration. The results were obtained from at least three separated experiments. The cell viability assay was considered valid when the variability among data for a given set of conditions, within the same experiment, was less than 10% with respect to the mean value. All values represent means±SD (n=3).
Cell viability assays were performed using SH-SY5Y cells to evaluate the potential of the molecules representing the sulfonamide, sulfonylurea, and urea series to protect cells from aggregated p-tau (FIG. 5). The survival rate was assessed after treatment with 0.8 μM p-tau in the absence or the presence of JF-19-73, JF-19-43 (urea), JF(TT)-20-58 at 8 μM. […] It has been reported previously (Liu et al, 2020, Sci. Rep. Hyperphosphorylated tau aggregation and cytotoxicity modulators screen identified prescription drugs linked to Alzheimer's disease and cognitive functions. Liu M, Dexheimer T, Sui D, Hovde S, Deng X, Kwok R, Bochar D A, Kuo M H. Sci Rep. 2020 Oct. 6; 10(1):16551. doi: 10.1038/s41598-020-73680-2.) that not all effective p-tau aggregation inhibitors, as indicated by significant reductions in ThSmax, were cytoprotective.

Data set [3] can be described thus: Solubility in aqueous phase. The format is physicochemical.
The target of data set [4] is T1, p-tau. In words: Transmission electron microscopy of p-tau fibrils. Particulars: p-tau 20 μM, compound 100 μM, 24 hours, vs. DMSO. It is filed as biochemical. The method, then:
[…] A volume of 10 μL was applied on a 400-mesh Formvar-carbon-coated cooper grid (Electron Microscopy Sciences, Hatfield, PA) to confirm the presence or the absence of fibrils. The grids were incubated for 1 minute and washed three times with distilled water. They were carefully air-dried and incubated for 1 minute in a fresh solution of 1% uranyl acetate. Samples were air-dried and observed using a transmission microscope (JEOL 1400 Flash, Japan). Pictures were acquired at an accelerating voltage of 100 kV and magnification of 40 and 80 k.
as §1

T1 sequence (P10636 1-412 isoform P10636-7): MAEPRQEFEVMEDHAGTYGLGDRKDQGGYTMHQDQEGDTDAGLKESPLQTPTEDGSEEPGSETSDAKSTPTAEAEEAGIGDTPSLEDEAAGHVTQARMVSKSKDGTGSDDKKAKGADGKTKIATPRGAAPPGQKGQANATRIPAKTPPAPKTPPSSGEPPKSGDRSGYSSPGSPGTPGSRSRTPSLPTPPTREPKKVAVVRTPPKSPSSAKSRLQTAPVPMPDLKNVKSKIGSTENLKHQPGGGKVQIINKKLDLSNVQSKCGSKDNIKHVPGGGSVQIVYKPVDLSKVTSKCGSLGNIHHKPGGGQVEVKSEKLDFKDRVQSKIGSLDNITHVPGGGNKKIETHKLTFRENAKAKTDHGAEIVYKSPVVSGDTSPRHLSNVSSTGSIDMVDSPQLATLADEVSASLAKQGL

Consider `O=C(Nc1ccccc1)Nc1ccc2c(c1)Cc1ccccc1-2` [JF(TT)-19-5], for which, at p-tau [1], the “dose dependence of inhibition of p-tau oligomerization” value is reported as “negative control” and the “inhibition of p-tau oligomer formation (cross-linking)” value was “had no effect”.

As for `O=C(Nc1ccc2c(c1)Cc1ccccc1-2)NS(=O)(=O)c1ccc(Cl)cc1` [JF(TT)-20-58], the “inhibition of p-tau fibril formation (ThS fluorescence intensity, ThSmax)” value (“inhibition of p-tau fibril formation” below) at p-tau [2] is “not a potent inhibitor of p-tau aggregation”. For the same compound, the “protection of SH-SY5Y cells against p-tau cytotoxicity” value in the data set on SH-SY5Y cells is listed as “negative controls”. Further, the “inhibition of p-tau oligomer formation (cross-linking)” value is recorded as “high molecular weight p-tau oligomers” at p-tau [1] and “had no effect” on p-tau [1] (listed as JF(T)-19-58).

On to `O=S(=O)(Nc1ccc2c(c1)Cc1ccccc1-2)c1ccc(Cl)cc1` [JF-19-73], for which, at p-tau [2], the “inhibition of p-tau fibril formation” value is given as “inhibits fibril; also recorded: most potent to inhibit fibril formation”. Also, the “protection of SH-SY5Y cells against p-tau cytotoxicity” value with SH-SY5Y cells is recorded as “protects SH-SY5Y cells against p-tau”. In the data set with SH-SY5Y cells (compound 8 μM without p-tau), the “toxicity of compound to SH-SY5Y cells” value was “non-toxic to cells”. The “protection against p-tau cytotoxicity, dose dependence” value with SH-SY5Y cells (compound 2, 4 and 8 μM) was “protected cell in a dose-dependent manner”. For the same compound, at p-tau [1], the “dose dependence of inhibition of p-tau oligomerization” value is listed as “dose-dependent manner”; the “inhibition of p-tau oligomer formation (cross-linking)” value was “inhibits fibril (ThSmax) and oligomer (Oligo. Inh.) formation; also recorded: stopped formation of p-tau oligomers; also recorded: effectively prevented this crosslinking”. Also, in data set [3], the “solubility (S) in aqueous phase” value is more than 100 µM. Further, the “p-tau fibril formation by TEM” value on p-tau [4] is reported as “less fibrils; also recorded: clear effects on p-tau fibrillization”.

`O=C(Nc1ccc(Cl)cc1)Nc1ccc2c(c1)Cc1ccccc1-2` [JF(NBMI)-20-45]: the “inhibition of p-tau fibril formation” value on p-tau [2] was “not a potent inhibitor of p-tau aggregation”.

Turning to `CCNC(=O)Nc1ccc2c(c1)Cc1ccccc1-2` [JF-19-43], the “protection of SH-SY5Y cells against p-tau cytotoxicity” value in the data set with SH-SY5Y cells is “negative controls”. In addition, the results for the “inhibition of p-tau oligomer formation (cross-linking)” value on p-tau [1] and at p-tau [1] (listed as JF19-43) were “had no effect” and “high molecular weight p-tau oligomers”, respectively.
